Data: article PMC5925751 (American journal of hematology, 2017)
Values joined by “and” are separate entries in the source; they are usually repeats but may differ in a detail not shown here. Equal entries are not always repeated.

Tests used:
[1] = Pharmacokinetics, plasma AMG 900 by LC-MS/MS after multiple oral administrations; type: in vivo; details: human
patients with AML [2] = assay: Efficacy: objective response by Cheson response criteria; type: in vivo, human
patients with AML [3] = assay: Safety and tolerability; type: in vivo
[4] = tested on: phosphorylated histone H3 (pHH3) in peripheral blood leukemic blasts; assay: Pharmacodynamics: flow cytometric pHH3 assay in whole blood; type: in vivo, human; details: as early as 1 hour after treatment; regardless of dosing schedule; transient
AML blasts = details: cited from earlier work
[5] = Total, all doses and schedules (n = 35)

With Cc1csc(-c2nnc(Nc3ccc(Oc4ncccc4-c4ccnc(N)n4)cc3)c3ccccc23)c1 [AMG 900, N-(4-(3-(2-aminopyrimidin-4-yl)pyridin-2-yloxy)phenyl)-4-(4-methylthiophen-2-yl)p hthalazin-1-amine] the AUC(0-t) ([1]; 15 mg) was 1380 ng·h/mL, the Cmax ([1]; 15 mg) was 501 ng/mL and the AUC(0-t) ([1]; 25 mg) was 2740 ng·h/mL. For the same molecule, the Cmax ([1]; 25 mg) was 951 ng/mL, the AUC(0-t) ([1]; 40 mg) was 4360 ng·h/mL and the Cmax ([1]; 40 mg) was 1600 ng/mL. It also gave an AUC(0-t) ([1]; 60 mg) of 5620 ng·h/mL, a Cmax ([1]; 60 mg) of 1890 ng/mL and an AUC(0-t) ([1]; 80 mg) of 3210 ng·h/mL. It also gave a Cmax ([1]; 80 mg) of 1430 ng/mL, an AUC(0-t) ([1]; 100 mg) of 10200 ng·h/mL and a Cmax ([1]; 100 mg) of 3670 ng/mL. The objective response rate (patients with AML [2]; all patients, any dose, either schedule, 80% confidence interval: 3%, 18%) was 9%, the duration of response (patients with AML [2]; individual values of the three responders, 1.5 months is a censored observation) was 3 months and 1.5 months and < 1 months and the “Treatment-related adverse events by grade: Fatal” value (patients with AML [3]; 15 mg, 4 days on/10 days off (n = 4)) was 0 (0) n (%). The “Treatment-related adverse events by grade: Fatal” value (patients with AML [3]; 25 mg, 4 days on/10 days off (n = 3)) was 0 (0) n (%), the “Treatment-related adverse events by grade: Fatal” value (patients with AML [3]; 30 mg, 7 days on/7 days off (n = 3)) was 0 (0) n (%) and the “Treatment-related adverse events by grade: Fatal” value (patients with AML [3]; 40 mg, 4 days on/10 days off (n = 7)) was 1 (14) n (%). For the same molecule, the “Treatment-related adverse events by grade: Fatal” value (patients with AML [3]; 40 mg, 7 days on/7 days off (n = 4)) was 0 (0) n (%), the “Treatment-related adverse events by grade: Fatal” value (patients with AML [3]; 50 mg, 7 days on/7 days off (n = 6)) was 1 (17) n (%) and the “Treatment-related adverse events by grade: Fatal” value (patients with AML [3]; 60 mg, 4 days on/10 days off (n = 4)) was 0 (0) n (%). The “Treatment-related adverse events by grade: Fatal” value (patients with AML [3]; 80 mg, 4 days on/10 days off (n = 3)) was 0 (0) n (%), the “Treatment-related adverse events by grade: Fatal” value (patients with AML [3]; 100 mg, 4 days on/10 days off (n = 1)) was 0 (0) n (%) and the “Grade ≥ 3 treatment-related adverse events: Device-related infection” value (patients with AML [3]; [5]) was 2 (6) n (%). For the same molecule, the “Grade ≥ 3 treatment-related adverse events: Septic shock” value (patients with AML [3]; [5]) was 2 (6) n (%), the “Treatment-related adverse events by grade: Fatal” value (patients with AML [3]; [5]) was 2 (6) n (%) and the “Treatment-related adverse events, all grades: Mucosal inflammation” value (patients with AML [3]; [5]) was 4 (11) n (%). The “Treatment-related adverse events, all grades: Nausea” value (patients with AML [3]; [5]) was 11 (31) n (%), the “Treatment-related adverse events, all grades: Rash” value (patients with AML [3]; [5]) was 4 (11) n (%) and the “Treatment-related adverse events, all grades: Vomiting” value (patients with AML [3]; [5]) was 6 (17) n (%). The “maximum tolerated dose (MTD)” value (patients with AML [3]; either dosing schedule) was “not formally reached”, the “Any treatment-related adverse events” value (patients with AML [3]; human, in vivo) was 30 (86) n (%) and the “Grade ≥ 3 treatment-related adverse events: Diarrhea” value (patients with AML [3]; human, in vivo) was 2 (6) n (%). The “Grade ≥ 3 treatment-related adverse events: Febrile neutropenia” value (patients with AML [3]; human, in vivo) was 10 (29) n (%), the “Grade ≥ 3 treatment-related adverse events: Pancytopenia” value (patients with AML [3]; human, in vivo) was 2 (6) n (%) and the “Grade ≥ 3 treatment-related adverse events: Thrombocytopenia” value (patients with AML [3]; human, in vivo) was 2 (6) n (%). The “Treatment-related adverse events by grade: Grade ≥ 3” value (patients with AML [3]; human, in vivo) was 16 (46) n (%), the “Treatment-related adverse events by grade: Grade ≥ 4” value (patients with AML [3]; human, in vivo) was 5 (14) n (%) and the “Treatment-related adverse events, all grades: Alopecia” value (patients with AML [3]; human, in vivo) was 5 (14) n (%). The “Treatment-related adverse events, all grades: Diarrhea” value (patients with AML [3]; human, in vivo) was 10 (29) n (%), the “Treatment-related adverse events, all grades: Dyspnea” value (patients with AML [3]; human, in vivo) was 4 (11) n (%) and the “Treatment-related adverse events, all grades: Epistaxis” value (patients with AML [3]; human, in vivo) was 4 (11) n (%). The “Treatment-related adverse events, all grades: Fatigue” value (patients with AML [3]; human, in vivo) was 8 (23) n (%), the “Treatment-related adverse events, all grades: Febrile neutropenia” value (patients with AML [3]; human, in vivo) was 10 (29) n (%) and the “median (range) duration of febrile neutropenia” value (patients with AML [3]; human, in vivo) was 8 (1, 45) days. For the same molecule, the “serious treatment-related AE: device-related infection” value (patients with AML [3]; human, in vivo) was 6%, the “serious treatment-related AE: febrile neutropenia” value (patients with AML [3]; human, in vivo) was 26% and the “serious treatment-related AE: septic shock” value (patients with AML [3]; human, in vivo) was 6%. The “treatment-related AE, any grade: alopecia” value (patients with AML [3]; human, in vivo) was 14%, the “treatment-related AE, any grade: nausea” value (patients with AML [3]; human, in vivo) was 31% and the “treatment-related AE, any grade: vomiting” value (patients with AML [3]; human, in vivo) was 17%. For the same molecule, the “tolerability of highest dose evaluated” value (patients with AML [3]; in vivo) was “tolerated”, the “patients with serious treatment-related AEs” value (patients with AML [3]; overall, 11 patients) was 31% and the “patients who discontinued AMG 900 treatment due to AEs” value (patients with AML [3]; overall, five patients) was 14%. For the same molecule, the “patients who died during the study” value (patients with AML [3]; overall, nine patients, two deaths considered treatment-related) was 26% and the “inhibition of pHH3 expression in whole blood” value [4] was “clear inhibition of pHH3 expression”.

For COc1cc(Nc2ncc3c(n2)-c2ccc(Cl)cc2C(c2c(F)cccc2OC)=NC3)ccc1C(=O)O [MLN8237], the “apoptosis of AML blasts” value (AML blasts) is given as “induced apoptosis” and the “proliferation of AML blasts” value (AML blasts) is given as “inhibited proliferation”.
